{
  "source": "the Kinase Knowledgebase extract (Sharma et al. 2016)",
  "key": {"ROCK2 (human)": {"target": "ROCK2 (human) (UniProt O75116)", "test": "Assessment of ROCK2 Kinase Acitvity"}, "EGFR (human) [1]": {"target": "EGFR (human) (UniProt P00533)", "sequence (P00533 whole entry, looked up)": "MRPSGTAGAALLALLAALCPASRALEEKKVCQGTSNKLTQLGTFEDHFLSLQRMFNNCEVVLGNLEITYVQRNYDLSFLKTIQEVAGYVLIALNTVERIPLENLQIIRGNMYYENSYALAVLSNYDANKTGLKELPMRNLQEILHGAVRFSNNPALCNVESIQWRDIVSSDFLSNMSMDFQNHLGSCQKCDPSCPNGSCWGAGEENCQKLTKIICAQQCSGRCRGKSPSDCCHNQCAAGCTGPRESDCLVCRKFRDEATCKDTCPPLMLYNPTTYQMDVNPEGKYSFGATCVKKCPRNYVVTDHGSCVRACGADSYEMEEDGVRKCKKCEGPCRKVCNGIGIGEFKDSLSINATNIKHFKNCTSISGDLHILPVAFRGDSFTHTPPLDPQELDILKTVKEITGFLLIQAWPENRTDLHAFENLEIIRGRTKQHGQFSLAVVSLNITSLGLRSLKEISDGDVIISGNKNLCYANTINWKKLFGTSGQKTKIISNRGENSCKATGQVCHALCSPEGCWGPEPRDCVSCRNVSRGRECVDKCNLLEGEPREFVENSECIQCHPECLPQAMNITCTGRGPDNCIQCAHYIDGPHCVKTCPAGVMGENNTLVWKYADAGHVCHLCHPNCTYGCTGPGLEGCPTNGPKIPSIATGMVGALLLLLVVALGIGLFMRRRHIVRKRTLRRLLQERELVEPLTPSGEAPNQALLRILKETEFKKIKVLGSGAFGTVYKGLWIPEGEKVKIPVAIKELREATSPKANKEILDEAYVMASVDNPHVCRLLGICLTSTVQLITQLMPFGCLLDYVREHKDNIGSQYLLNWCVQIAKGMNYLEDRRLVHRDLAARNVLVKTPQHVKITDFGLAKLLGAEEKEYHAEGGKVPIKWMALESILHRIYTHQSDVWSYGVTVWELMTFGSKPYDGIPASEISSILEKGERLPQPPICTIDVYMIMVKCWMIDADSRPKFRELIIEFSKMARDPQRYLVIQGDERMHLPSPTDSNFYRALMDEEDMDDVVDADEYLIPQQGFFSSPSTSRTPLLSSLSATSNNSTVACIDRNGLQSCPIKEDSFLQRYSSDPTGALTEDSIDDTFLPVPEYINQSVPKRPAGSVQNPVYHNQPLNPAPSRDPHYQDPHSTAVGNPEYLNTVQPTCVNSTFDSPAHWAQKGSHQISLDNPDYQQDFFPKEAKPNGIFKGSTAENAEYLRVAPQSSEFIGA", "conditions": "kb"}, "EGFR (human) [2]": {"target": "EGFR (human) (UniProt P00533)"}, "EGFR (human) [3]": {"target": "EGFR (human) (UniProt P00533)", "remark": "listed apart in the source"}, "MAPK14 (human) [4]": {"target": "MAPK14 (human) (UniProt Q16539)", "sequence (Q16539 whole entry, looked up)": "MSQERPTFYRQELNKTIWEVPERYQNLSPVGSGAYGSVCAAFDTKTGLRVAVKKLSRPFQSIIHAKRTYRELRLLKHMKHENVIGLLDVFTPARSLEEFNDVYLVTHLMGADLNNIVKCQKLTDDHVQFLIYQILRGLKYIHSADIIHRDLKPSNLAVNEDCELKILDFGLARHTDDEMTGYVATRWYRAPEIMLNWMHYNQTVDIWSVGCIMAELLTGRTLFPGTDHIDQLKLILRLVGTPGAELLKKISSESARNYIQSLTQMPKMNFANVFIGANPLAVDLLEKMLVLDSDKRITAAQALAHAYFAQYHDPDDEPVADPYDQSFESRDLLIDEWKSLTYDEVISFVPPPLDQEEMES", "test": "Inhibition of MAPK14 Kinase Activity"}, "EGFR [5]": {"target": "EGFR (UniProt P00533)", "sequence (P00533 whole entry, looked up)": "as the sequence (P00533 whole entry, looked up) above"}, "PIK3CA": {"target": "PIK3CA (UniProt P42336)", "sequence (P42336 whole entry, looked up)": "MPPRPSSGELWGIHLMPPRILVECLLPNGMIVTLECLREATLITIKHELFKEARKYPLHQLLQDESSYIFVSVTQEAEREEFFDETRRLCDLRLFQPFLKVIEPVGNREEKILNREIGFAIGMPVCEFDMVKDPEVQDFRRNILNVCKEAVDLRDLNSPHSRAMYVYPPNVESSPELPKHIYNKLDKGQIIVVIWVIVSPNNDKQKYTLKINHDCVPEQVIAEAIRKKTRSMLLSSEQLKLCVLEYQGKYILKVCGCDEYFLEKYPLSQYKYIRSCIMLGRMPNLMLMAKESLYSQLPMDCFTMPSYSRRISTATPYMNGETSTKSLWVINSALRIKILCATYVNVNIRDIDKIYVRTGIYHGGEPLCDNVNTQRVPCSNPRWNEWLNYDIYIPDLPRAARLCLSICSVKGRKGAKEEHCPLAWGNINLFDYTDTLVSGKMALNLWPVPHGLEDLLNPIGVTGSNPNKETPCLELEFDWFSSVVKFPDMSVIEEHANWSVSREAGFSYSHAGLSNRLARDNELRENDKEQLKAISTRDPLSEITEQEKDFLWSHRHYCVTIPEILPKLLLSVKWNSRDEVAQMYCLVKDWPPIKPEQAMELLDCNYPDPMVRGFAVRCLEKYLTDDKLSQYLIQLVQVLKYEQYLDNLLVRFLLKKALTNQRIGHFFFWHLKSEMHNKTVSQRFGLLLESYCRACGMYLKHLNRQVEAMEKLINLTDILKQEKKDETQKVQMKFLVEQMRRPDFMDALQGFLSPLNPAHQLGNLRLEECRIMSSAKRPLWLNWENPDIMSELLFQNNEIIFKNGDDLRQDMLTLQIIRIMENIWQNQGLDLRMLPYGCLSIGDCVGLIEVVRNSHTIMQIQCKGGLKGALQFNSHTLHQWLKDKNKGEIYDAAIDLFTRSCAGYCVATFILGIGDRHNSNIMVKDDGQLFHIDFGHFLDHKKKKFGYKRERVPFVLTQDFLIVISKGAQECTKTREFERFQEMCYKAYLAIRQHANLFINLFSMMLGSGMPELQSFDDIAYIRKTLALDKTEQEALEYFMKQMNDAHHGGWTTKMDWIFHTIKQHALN"}, "EGFR [6]": {"target": "EGFR (UniProt P00533)", "remark": "listed apart in the source"}, "CDK2": {"target": "CDK2 (UniProt P24941)", "test": "Enzyme Assay"}, "EGFR (human) [7]": {"target": "EGFR (human) (UniProt P00533)", "conditions": "a431"}, "EGFR (human) [8]": {"target": "EGFR (human) (UniProt P00533)", "conditions": "a431", "remark": "listed apart in the source"}, "EGFR (human) [9]": {"target": "EGFR (human) (UniProt P00533)", "conditions": "a431", "remark": "listed apart in the source"}, "EGFR [10]": {"target": "EGFR (UniProt P00533)", "remark": "listed apart in the source"}, "CDK2 (human) [11]": {"target": "CDK2 (human) (UniProt P24941)", "test": "Enzyme Assay"}, "CDK2 (human) [12]": {"target": "CDK2 (human) (UniProt P24941)", "test": "Enzyme Assay", "remark": "listed apart in the source"}, "MAPK14 (human) [13]": {"target": "MAPK14 (human) (UniProt Q16539)", "test": "In vitro Inhibition of LPS-Induced TNF-alpha Release in THP-1 Cells", "conditions": "thp.1 monocytic"}, "EGFR (human) [14]": {"target": "EGFR (human) (UniProt P00533)", "remark": "listed apart in the source"}, "MAPK14 (human) [15]": {"target": "MAPK14 (human) (UniProt Q16539)", "test": "Inhibition of TNF-alpha Release from LPS Stimulated hPBMCs", "conditions": "pbmc"}, "EGFR (human) [16]": {"target": "EGFR (human) (UniProt P00533)", "conditions": "kb", "remark": "listed apart in the source"}, "EGFR (human) [17]": {"target": "EGFR (human) (UniProt P00533)", "remark": "listed apart in the source"}, "EGFR (human) [18]": {"target": "EGFR (human) (UniProt P00533)", "conditions": "kb", "remark": "listed apart in the source"}, "EGFR [19]": {"target": "EGFR (UniProt P00533)", "remark": "listed apart in the source"}, "EGFR (human) [20]": {"target": "EGFR (human) (UniProt P00533)", "remark": "listed apart in the source"}, "EGFR (human) [21]": {"target": "EGFR (human) (UniProt P00533)", "remark": "listed apart in the source"}, "EGFR (human) [22]": {"target": "EGFR (human) (UniProt P00533)", "conditions": "A431"}, "EGFR (human) [23]": {"target": "EGFR (human) (UniProt P00533)", "remark": "listed apart in the source"}, "ROCK2 (bovine)": {"target": "ROCK2 (bovine) (UniProt Q28021)", "test": "Inhibition of RHO-Associated Coiled-Coil-Containing Protein Kinase 2 Activity"}, "EGFR (human) [24]": {"target": "EGFR (human) (UniProt P00533)", "conditions": "difi"}, "EGFR (human) [25]": {"target": "EGFR (human) (UniProt P00533)", "remark": "listed apart in the source"}, "EGFR (human) [26]": {"target": "EGFR (human) (UniProt P00533)", "conditions": "a431", "remark": "listed apart in the source"}, "EGFR (mouse)": {"target": "EGFR (mouse) (UniProt P00533)", "conditions": "mk"}, "EGFR (murine)": {"target": "EGFR (murine) (UniProt P00533)", "sequence (P00533 whole entry, looked up)": "as the sequence (P00533 whole entry, looked up) above", "conditions": "32 d"}, "[27]": {"system": "EGFR (murine), P00533 [Antiproliferation of 32D/EGFRvIII Cells]"}, "EGFR (human) [28]": {"target": "EGFR (human) (UniProt P00533)", "remark": "listed apart in the source"}, "EGFR (human) [29]": {"target": "EGFR (human) (UniProt P00533)", "conditions": "a431", "remark": "listed apart in the source"}},
  "note": "“And” between values parts separate entries of the source, which are not always exact repeats. Equal entries are not always repeated.",
  "data": [
    {"smiles": "NC[C@@](O)(c1ccc(Cl)cc1)c1ccc(-c2cn[nH]c2)cc1", "values": [
      {"measurement": "IC50", "setting": "ROCK2 (human)", "result": "< 10", "unit": "nM"}
    ]},
    {"smiles": "CN1CCC(Oc2cccc3ncnc(Nc4ccc(OCc5cccc(F)c5)c(Cl)c4)c23)CC1", "values": [
      {"measurement": "IC50", "setting": "EGFR (human) [1]", "result": 2500, "unit": "nM"}
    ]},
    {"smiles": "CCOCOc1cc(OCOCC)c2c(c1Cl)CC(=O)C=CCCC=CC[C@H](c1ccccc1)OC2=O", "values": [
      {"measurement": "IC50", "setting": "EGFR (human) [2]", "result": 33, "unit": "µM"}
    ]},
    {"smiles": "CN(C)CC(=O)N1CCC[C@@H]1COc1cccc2ncnc(Nc3ccc(OCc4cncs4)c(Cl)c3)c12", "values": [
      {"measurement": "IC50", "setting": "EGFR (human) [3]", "result": 260, "unit": "nM"}
    ]},
    {"smiles": "O=C(CCCNc1ncc(C(F)(F)F)cc1Cl)NNS(=O)(=O)c1ccc(CNC(=O)c2ccc(Cl)cc2)s1", "values": [
      {"measurement": "IC50", "setting": "MAPK14 (human) [4]", "result": "> 10", "unit": "µM"},
      {"measurement": "IC50", "setting": "EGFR [5]", "result": "> 10", "unit": "µM"}
    ]},
    {"smiles": "O=c1cc(N2CCOCC2)oc2c(-c3cccc4c3sc3ccccc34)cccc12", "values": [
      {"measurement": "IC50", "setting": "PIK3CA", "result": 5, "unit": "µM"}
    ]},
    {"smiles": "CCc1cccc(CC)c1NC(=O)N1Cc2[nH]nc(NC(=O)c3ccc(N4CCN(C)CC4)cc3)c2C1", "values": [
      {"measurement": "IC50", "setting": "EGFR [6]", "result": "> 10", "unit": "µM"},
      {"measurement": "IC50", "setting": "CDK2", "result": "> 10", "unit": "µM"}
    ]},
    {"smiles": "COCC1COc2cc3ncnc(Nc4cccc(Br)c4)c3cc2O1", "note": "(stereo not given)", "values": [
      {"measurement": "GI50", "setting": "EGFR (human) [7]", "result": "600 nM and 240 nM"}
    ]},
    {"smiles": "C/C(=C/c1cc2c(N)nc(N)nc2o1)c1ccc2ccccc2c1", "values": [
      {"measurement": "IC50", "setting": "EGFR (human) [8]", "result": "> 50", "unit": "µM"},
      {"measurement": "IC50", "setting": "EGFR (human) [9]", "result": "> 50", "unit": "µM"}
    ]},
    {"smiles": "Fc1cccc(COc2ccc(Nc3ncncc3I)cc2Cl)c1", "values": [
      {"measurement": "IC50", "setting": "EGFR [10]", "result": 320, "unit": "nM"}
    ]},
    {"smiles": "CCC(C)Cn1c(=O)cc(C)c2cnc(Nc3ccc(N4CCNCC4)cc3)nc21", "note": "(stereo not given)", "values": [
      {"measurement": "IC50", "setting": "CDK2 (human) [11]", "result": "> 5", "unit": "µM"},
      {"measurement": "IC50", "setting": "CDK2 (human) [12]", "result": "> 5", "unit": "µM"}
    ]},
    {"smiles": "O=C(Nc1ccc2[nH]cc(CCc3ccncc3)c2c1)c1cc(F)cc(N2CCOCC2)c1", "values": [
      {"measurement": "IC50", "setting": "MAPK14 (human) [13]", "result": 530, "unit": "nM"}
    ]},
    {"smiles": "COc1cc2c(Nc3ncc(CCNC(=O)c4cccc(F)c4)s3)ncnc2cc1OCCCN1CCCC1", "values": [
      {"measurement": "IC50", "setting": "EGFR (human) [14]", "result": "> 100", "unit": "µM"}
    ]},
    {"smiles": "Cc1ccc(S(=O)(=O)Nc2ccc3c(c2)CNC(=O)N3c2c(Cl)cccc2Cl)cc1", "values": [
      {"measurement": "IC50", "setting": "MAPK14 (human) [15]", "result": "> 10", "unit": "µM"}
    ]},
    {"smiles": "COc1cc(OC2CCN(C)CC2)c2c(Nc3ccc(F)c(Cl)c3)ncnc2c1", "values": [
      {"measurement": "IC50", "setting": "EGFR (human) [16]", "result": 87, "unit": "nM"}
    ]},
    {"smiles": "COc1cc2ncnc(Nc3cccc(Cl)c3F)c2cc1CN(C)C1(C(N)=O)CCN(S(C)(=O)=O)CC1", "values": [
      {"measurement": "IC50", "setting": "EGFR (human) [17]", "result": 9, "unit": "nM"},
      {"measurement": "IC50", "setting": "EGFR (human) [18]", "result": 91, "unit": "nM"}
    ]},
    {"smiles": "COCCN(C)CCOc1ccc2[nH]c(-c3cc4ccccc4[nH]c3=O)cc2c1", "values": [
      {"measurement": "IC50", "setting": "EGFR [19]", "result": 8.58, "unit": "µM"}
    ]},
    {"smiles": "CCN(CC)Cc1ccc(-c2cc3c(N[C@H](C)c4ccccc4)ncnc3[nH]2)cc1", "values": [
      {"measurement": "IC50", "setting": "EGFR (human) [20]", "result": 4, "unit": "nM"}
    ]},
    {"smiles": "Nc1nc(Nc2ccc(S(N)(=O)=O)cc2)nn1C(=O)c1c(F)cccc1F", "values": [
      {"measurement": "IC50", "setting": "EGFR (human) [21]", "result": "> 100", "unit": "µM"},
      {"measurement": "IC50", "setting": "EGFR (human) [22]", "result": "> 100", "unit": "µM"},
      {"measurement": "IC50", "setting": "EGFR (human) [23]", "result": "> 10", "unit": "µM"}
    ]},
    {"smiles": "CC(C)c1ccc(CN2CCCC(Nc3cccc4cnccc34)C2)cc1", "note": "(stereo not given)", "values": [
      {"measurement": "IC50", "setting": "ROCK2 (bovine)", "result": 530, "unit": "nM"}
    ]},
    {"smiles": "COc1cc2c(cc1OC)Oc1ncnc(Oc3ccc(F)c(Cl)c3)c1NC2", "values": [
      {"measurement": "IC50", "setting": "EGFR (human) [24]", "result": 6.1, "unit": "µM"},
      {"measurement": "IC50", "setting": "EGFR (human) [25]", "result": 1200, "unit": "nM"}
    ]},
    {"smiles": "CCOc1cc2ncc(C#N)c(Nc3ccc(OCc4ccccn4)c(Cl)c3)c2cc1NC(=O)/C=C/CNC", "values": [
      {"measurement": "IC50", "setting": "EGFR (human) [26]", "result": 67, "unit": "nM"}
    ]},
    {"smiles": "CCN1CCN(Cc2ccc(-c3cc4c(N[C@H](C)c5ccccc5)ncnc4[nH]3)cc2)CC1", "values": [
      {"measurement": "IC50", "setting": "EGFR (mouse)", "result": 56, "unit": "nM"},
      {"measurement": "IC50", "setting": "EGFR (murine)", "result": 300, "unit": "nM"},
      {"measurement": "IC50", "setting": "[27]", "result": 10, "unit": "nM"}
    ]},
    {"smiles": "CN1CCN(c2ccc3[nH]c(-c4cc(-c5ccc(NC(=O)Nc6cccc(Cl)c6)cc5)[nH]n4)nc3c2)CC1", "values": [
      {"measurement": "IC50", "setting": "EGFR (human) [28]", "result": "≥ 5", "unit": "µM"}
    ]},
    {"smiles": "CC(C)C[C@@H]1NC(=O)[C@H](CC(C(=O)O)C(=O)O)NC(=O)C[S+]([O-])C[C@@H](C(N)=O)NC(=O)CCCCNC(=O)[C@H](CC(N)=O)NC(=O)C2(CCCCC2)NC(=O)[C@H](Cc2ccc(O)c(N)c2)NC1=O", "note": "(stereo not given in full)", "values": [
      {"measurement": "IC50", "setting": "EGFR (human) [29]", "result": 100, "unit": "µM"}
    ]}
  ]
}
